The results in this text go back to patent US6503935B1, “Imidazoles and related compounds as α1A agonists” (Abbott Laboratories, priority 1998, dated 2003).

Structures can show the parent of a compound that is named as a salt. Where two headings read alike, the source gives them in different places.

Series [1] deals with T1, α1b (hamster receptor expressed in mouse fibroblasts) (Mesocricetus auratus, UniProt P18841).
T1 construct: expressed in transfected cells; host or cells: mouse fibroblasts
T1 sequence (P18841 1-515): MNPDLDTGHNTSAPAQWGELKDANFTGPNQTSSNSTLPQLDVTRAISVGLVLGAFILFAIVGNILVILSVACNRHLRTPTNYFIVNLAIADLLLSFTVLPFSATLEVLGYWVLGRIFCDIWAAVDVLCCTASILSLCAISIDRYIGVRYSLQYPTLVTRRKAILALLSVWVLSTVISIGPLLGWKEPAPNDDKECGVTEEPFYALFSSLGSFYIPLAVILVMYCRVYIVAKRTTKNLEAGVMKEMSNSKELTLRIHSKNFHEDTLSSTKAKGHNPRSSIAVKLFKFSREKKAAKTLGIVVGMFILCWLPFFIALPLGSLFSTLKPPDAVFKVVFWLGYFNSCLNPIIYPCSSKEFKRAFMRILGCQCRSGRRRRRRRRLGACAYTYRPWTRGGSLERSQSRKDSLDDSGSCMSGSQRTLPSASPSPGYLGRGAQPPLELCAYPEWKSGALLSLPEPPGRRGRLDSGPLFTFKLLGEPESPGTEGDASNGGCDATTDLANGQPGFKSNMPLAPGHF
In words: Radioligand binding with [3H]-prazosin, α1b. In outline:
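Radioligand binding with [3H]-prazosin: α1A from rat submaxillary gland; α1b hamster receptor and α1d rat receptor, each expressed in mouse fibroblasts.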

For a further series, the system named is Anesthetized Dogs. As to the kind of experiment: Intraurethral pressure (IUP) in anesthetized dogs. The following applies: Canis lupus familiaris; iv dose causing a maximum increase in IUP of 5 mm Hg, anesthetized female dogs; read-out: Mean IUP ED5. It is filed as in vivo, dog.
[2] abbreviates: hamster receptor expressed in mouse fibroblasts, [3H]-prazosin, read-out: Radioligand Binding Ki α1b (Hamster).

As usually defined, the Ki is a measure of affinity in units of concentration, obtained from inhibition or displacement. With `CCS(=O)(=O)Nc1cccc2c1CCCC2c1c[nH]cn1.O=C(O)/C=C\C(=O)O` (single isomer, unassigned; (+)) [Example 33, (+)-N-[5-(1H-imidazol-4-yl)-5,6,7,8-tetrahydro-1-naphthalenyl]ethanesulfonamide, maleate], the Ki in series [1] (setting [2]) was determined as 1300 nM.
On to `CCS(=O)(=O)Nc1cccc2c1CCCC2c1c[nH]cn1.O=C(O)/C=C\C(=O)O` (centres unmarked) [Example 12, N-[5-(1H-imidazol-4-yl)-5,6,7,8-tetrahydro-1-naphthalenyl]ethanesulfonamide, maleate], for which the Ki in series [1] (setting [2]) turned out to be 6980 nM.
Broadly, the melting point is the temperature of the solid-liquid transition. On to `CS(=O)(=O)Nc1cccc(Cc2c[nH]cn2)c1.O=C(O)/C=C\C(=O)O` [Example 21, N-[3-(1H-imidazol-4-ylmethyl)phenyl]methanesulfonamide, maleate], for which the melting point is 142 to 144 °C. In series [1], the Ki amounted to 1270 nM. The ED (5 mmHg IUP increase) in the series with Anesthetized Dogs is 0.0227 µmol/kg.
Consider `COc1ccc(NS(C)(=O)=O)c2c1C(c1c[nH]cn1)CCC2` (centres unmarked) [Example 26, N-[5,6,7,8-tetrahydro-(1H-imidazol-4-yl)-4-methoxyy-1-naphthalenyl]methanesulfonamide, maleate], for which, in the series with Anesthetized Dogs, the ED (5 mmHg IUP increase) came out at 0.653 µmol/kg.
As for `Cc1c(Cc2c[nH]cn2)cccc1NS(C)(=O)=O.O=C(O)/C=C\C(=O)O` [Example 28, N-[3-(1H-imidazol-4-ylmethyl)-2-methylphenyl]methanesulfonamide, maleate], the ED (5 mmHg IUP increase) with Anesthetized Dogs came to 0.0771 µmol/kg.
For the compound `CCS(=O)(=O)Nc1cccc(Cc2c[nH]cn2)c1C.O=C(O)/C=C\C(=O)O` [Example 29, N-[3-(1H-imidazol-4-ylmethyl)-2-methylphenyl]ethanesulfonamide, maleate], the Ki in series [1] was 3880 nM. The ED (5 mmHg IUP increase) with Anesthetized Dogs amounted to 0.0411 µmol/kg.
On to `CC(c1cccc(NS(C)(=O)=O)c1)c1c[nH]cn1.O=C(O)/C=C\C(=O)O` (centres unmarked) [Example 31, N-[3-[1-(1H-imidazol-4-yl)ethyl]phenyl]methanesulfonamide, maleate], for which the ED (5 mmHg IUP increase) in the series on Anesthetized Dogs worked out at 0.0916 µmol/kg.
With `C=C(c1cccc(NS(=O)(=O)CC)c1)c1c[nH]cn1` [Example 45, N-{3-[1-(1H-imidazol-4-yl)vinyl]phenyly}ethanesulfonamide, maleate], the Ki in series [1] amounted to 1730 nM.
